From patent publication US20050187239A1 (priority 2002, published 2005)

Tested on: Male CD-1 mice
Details: mouse, in vivo

## CCC(=O)C(C[C@@H](C)N(C)C)(c1ccccc1)c1ccccc1 [L-Methadone, L-methadone]
  ED50 Value, Drug alone: 1.9 ± 0.2 mg/kg s.c.
  ED80 dose: 4 mg/kg s.c.
  effect on morphine responses when given together (FIG. 2): did reveal synergy
sc
  interaction with morphine (FIG. 1B): greater than additive interactions

## CN1CC[C@]23c4c5ccc(O)c4O[C@H]2C(=O)CC[C@@]3(O)[C@H]1C5 [oxymorphone]
sc
  interaction with a fixed dose of L-methadone (FIG. 1A): additive interactions

## CCOC(=O)C1(c2ccccc2)CCN(C)CC1 [meperidine]
sc
  interaction with a fixed dose of L-methadone (FIG. 1A): additive interactions

## COc1ccc2c3c1O[C@H]1C(=O)CC[C@@]4(O)[C@@H](C2)N(C)CC[C@]314 [oxycodone]
sc
  interaction with a fixed dose of L-methadone (FIG. 1A): additive interactions

## CN1CC[C@]23c4c5ccc(O)c4O[C@H]2[C@@H](O)C=C[C@H]3[C@H]1C5 [Morphine, morphine]
  ED50 Value, Combination (Total Drug Dose), Additive (predicted): 3.11 ± 0.32 mg/kg s.c.
  ED50 Value, Combination (Total Drug Dose), Observed: 0.83 ± 0.12 mg/kg s.c.
  ED50 Value, Drug alone: 4.7 ± 1.1 mg/kg s.c.
  analgesic activity of the combination versus additivity (FIG. 4): significantly greater than additive
  isobolographic analysis: combination with methadone versus composite additive line (FIG. 3): significant greater than the composite additive line
sc
  interaction with a fixed dose of L-methadone (FIG. 1A): greater than the sum of their independent actions

## CN1CC[C@]23c4c5ccc(O)c4O[C@H]2[C@@H](O[C@@H]2O[C@H](C(=O)O)[C@@H](O)[C@H](O)[C@H]2O)C=C[C@H]3[C@H]1C5 [M6G, morphine-6β-glucuronide]
  ED50 Value, Combination (Total Drug Dose), Additive (predicted): 2.80 ± 0.21 mg/kg s.c.
  ED50 Value, Combination (Total Drug Dose), Observed: 1.03 ± 0.34 mg/kg s.c.
  ED50 Value, Drug alone: 3.7 ± 0.4 mg/kg s.c.
  isobolographic analysis: combination with methadone versus composite additive line (FIG. 3): significantly greater than the composite additive line
sc
  interaction with a fixed dose of L-methadone (FIG. 1A): greater than the sum of their independent actions

## CCC(=O)C(C[C@H](C)N(C)C)(c1ccccc1)c1ccccc1 [D-Methadone, D-methadone]
  ED50 Value, Drug alone: >>4 mg/kg s.c.
  analgesic effect alone: did not show any effects alone
  effect on morphine responses when given together (FIG. 2): did not influence morphine responses

## COc1ccc2c3c1O[C@H]1[C@@H](O)C=C[C@H]4[C@@H](C2)N(C)CC[C@@]341 [Codeine, codeine]
  ED50 Value, Combination (Total Drug Dose), Additive (predicted): 2.79 ± 0.22 mg/kg s.c.
  ED50 Value, Combination (Total Drug Dose), Observed: 0.74 ± 0.10 mg/kg s.c.
  ED50 Value, Drug alone: 3.7 ± 0.4 mg/kg s.c.
  isobolographic analysis: combination with methadone versus composite additive line (FIG. 3): significantly greater than the composite additive line
sc
  interaction with a fixed dose of L-methadone (FIG. 1A): greater than additive responses
